Results from US11000033B2, “Ketone or oxime compound, and herbicide” (NISSAN CHEMICAL CORPORATION, priority 2014, dated 2021).

Legend:
Assay type in all cases: in vivo
[1] = tested on: soybean; assay: Test Example 4: effect on crop by soil treatment (symbol d); conditions: application herbicide amount 320 g/ha
Summary of the method: (§1)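 Soil-treatment setup: crop and weed seeds were spot-sown into sterilized diluvial soil, then buried beneath approximately 1.5 cm of it, and the boxes were housed in a 25–30° C. greenhouse.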

[2] = tested on: rice; assay: Test Example 4: effect on crop by soil treatment (symbol b); conditions: application herbicide amount 320 g/ha
Summary of the method: as §1

[3] = tested on: Amaranthus retroflexus; assay: Test Example 5: herbicidal effect by foliage application, plastic box (symbol N); conditions: 320 g/ha, 3 weeks after application
Summary of the method: (§2)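 Herbicide, formulated as an emulsion and diluted in water, is sprayed onto the aerial parts of 14-day seedlings. These were grown at 25° C. to 30° C. in sterilized diluvial soil; effects are graded after 3 weeks.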

[4] = tested on: transplanted rice plant; assay: Test Example 1: effect on crop, application before weed generation in submerged conditions (symbol a); conditions: application herbicide amount 320 g/ha
Summary of the method: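 Rice at 2.5 leaf stage transplanted into submerged soil (4 cm depth) sown with three weed species; herbicide applied before weed emergence.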

[5] = tested on: wheat; assay: Test Example 4: effect on crop by soil treatment (symbol e); conditions: application herbicide amount 320 g/ha
Summary of the method: as §1

[6] = tested on: Scirpus juncoides; assay: Test Example 2: herbicidal activity, application during weed generation in submerged conditions (symbol B); conditions: Table 23; application herbicide amount 320 g/ha; grade 0-5 by criteria of Test Example 1
Summary of the method: (§3)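 Visual herbicidal ratings, taken three weeks after dosing, reflect post-emergence water-surface application to seedlings at one to two leaves. Conditions: co-sown weeds in alluvial soil flooded to 4 cm, greenhouse held at 25° C. to 30° C.; compound given as water-diluted emulsion at a fixed herbicide amount.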

[7] = tested on: soybean; assay: Test Example 5: effect on crop by foliage application, plastic box (symbol d); conditions: 320 g/ha, 3 weeks after application
Summary of the method: (§4)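 Soil: sterilized diluvial. Container: plastic box, 21 × 13 cm, 7 cm deep. Sowing: spot-like, ~1.5 cm cover. Growth: greenhouse, 25° C. to 30° C.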

[8] = tested on: corn; assay: Test Example 5: effect on crop by foliage application, plastic box (symbol c); conditions: 320 g/ha, 3 weeks after application
Summary of the method: as §4

[9] = tested on: Monochoria vaginalis; assay: Test Example 2: herbicidal activity, application during weed generation in submerged conditions (symbol C); conditions: Table 23; application herbicide amount 320 g/ha; grade 0-5 by criteria of Test Example 1
Summary of the method: as §3

[10] = tested on: rapeseed; assay: Test Example 5: effect on crop by foliage application, plastic box (symbol g); conditions: 320 g/ha, 3 weeks after application
Summary of the method: as §4

[11] = tested on: Abutilon theophrasti; assay: Test Example 4: herbicidal effect by soil treatment (symbol M); conditions: application herbicide amount 320 g/ha
Summary of the method: (§5)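 Seeds were sown in sterilized diluvial soil, covered with about 1.5 cm of soil, and the soil surface was sprayed with a water-diluted emulsion of the compound at a predetermined rate. Plants grew in a greenhouse at 25° C. to 30° C.; effects were scored visually 3 weeks after application.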

[12] = tested on: Avena fatua; assay: Test Example 4: herbicidal effect by soil treatment (symbol I); conditions: application herbicide amount 320 g/ha
Summary of the method: as §5

[13] = tested on: Lolium multiflorum Lam.; assay: Test Example 5: herbicidal effect by foliage application, plastic box (symbol K); conditions: 320 g/ha, 3 weeks after application
Summary of the method: as §2

[14] = tested on: Digitaria ciliaris; assay: Test Example 5: herbicidal effect by foliage application, plastic box (symbol F); conditions: 320 g/ha, 3 weeks after application
Summary of the method: as §2

[15] = tested on: Echinochloa crus-galli var. crus-galli; assay: Test Example 4: herbicidal effect by soil treatment (symbol H); conditions: application herbicide amount 320 g/ha
Summary of the method: as §5

[16] = tested on: Lolium multiflorum Lam.; assay: Test Example 4: herbicidal effect by soil treatment (symbol K); conditions: application herbicide amount 320 g/ha
Summary of the method: as §5

[17] = tested on: Echinochloa crus-galli var. crus-galli; assay: Test Example 5: herbicidal effect by foliage application, plastic box (symbol H); conditions: 320 g/ha, 3 weeks after application
Summary of the method: as §2

[18] = tested on: Veronica persica; assay: Test Example 5: herbicidal effect by foliage application, plastic box (symbol R); conditions: 320 g/ha, 3 weeks after application
Summary of the method: as §2

Structure (SMILES)	d (soybean) effect on crop grade [1]	b (directly sowed rice plant) effect on crop grade [2]	N: Amaranthus retroflexus, herbicidal effect grade [3]	Effect grade on crop, a: transplanted rice plant [4]	e (wheat) effect on crop grade [5]	Herbicidal effect grade, B: Scirpus juncoides [6]	d: soybean, effect on crop grade [7]	c: corn, effect on crop grade [8]	Herbicidal effect grade, C: Monochoria vaginalis [9]	g: rapeseed, effect on crop grade [10]	M (Abutilon theophrasti) herbicidal effect grade [11]	I (Avena fatua) herbicidal effect grade [12]	K: Lolium multiflorum Lam., herbicidal effect grade [13]	F: Digitaria ciliaris, herbicidal effect grade [14]	H (Echinochloa crus-galli var. crus-galli) herbicidal effect grade [15]	K (Lolium multiflorum Lam.) herbicidal effect grade [16]	H: Echinochloa crus-galli var. crus-galli, herbicidal effect grade [17]	R: Veronica persica, herbicidal effect grade [18]	also measured
CC(CC1CC(O)=C(c2c(C)cc(C)cc2C)C1=O)=NOCc1ccccc1F (stereo not shown) [1-026]	0 (Herbicidal ratio of 5% or lower (almost no effect))	4 (Herbicidal ratio of 70% or higher and lower than 90%)	0 (Herbicidal ratio of 5% or lower (almost no effect))	5 (Herbicidal ratio of 90% or more (almost completely withered))	2 (Herbicidal ratio of 20% or higher and lower than 40%)	3 (Herbicidal ratio of 40% or higher and lower than 70%)	0 (Herbicidal ratio of 5% or lower (almost no effect))	3 (Herbicidal ratio of 40% or higher and lower than 70%)	3 (Herbicidal ratio of 40% or higher and lower than 70%)	4 (Herbicidal ratio of 70% or higher and lower than 90%)	0 (Herbicidal ratio of 5% or lower (almost no effect))	3 (Herbicidal ratio of 40% or higher and lower than 70%)	5 (Herbicidal ratio of 90% or more (almost completely withered))	5 (Herbicidal ratio of 90% or more (almost completely withered))	5 (Herbicidal ratio of 90% or more (almost completely withered))	5 (Herbicidal ratio of 90% or more (almost completely withered))	4 (Herbicidal ratio of 70% or higher and lower than 90%)	–	–
CON=CC(C)(C)C1CC(O)=C(c2c(C)cc(C)cc2C)C1=O (stereo not shown) [1-030]	0 (Herbicidal ratio of 5% or lower (almost no effect))	4 (Herbicidal ratio of 70% or higher and lower than 90%)	0 (Herbicidal ratio of 5% or lower (almost no effect))	1 (Herbicidal ratio of 5% or higher and lower than 20%)	0 (Herbicidal ratio of 5% or lower (almost no effect))	0 (Herbicidal ratio of 5% or lower (almost no effect))	0 (Herbicidal ratio of 5% or lower (almost no effect))	1 (Herbicidal ratio of 5% or higher and lower than 20%)	0 (Herbicidal ratio of 5% or lower (almost no effect))	3 (Herbicidal ratio of 40% or higher and lower than 70%)	0 (Herbicidal ratio of 5% or lower (almost no effect))	0 (Herbicidal ratio of 5% or lower (almost no effect))	5 (Herbicidal ratio of 90% or more (almost completely withered))	4 (Herbicidal ratio of 70% or higher and lower than 90%)	2 (Herbicidal ratio of 20% or higher and lower than 40%)	5 (Herbicidal ratio of 90% or more (almost completely withered))	4 (Herbicidal ratio of 70% or higher and lower than 90%)	0 (Herbicidal ratio of 5% or lower (almost no effect))	–
CON=C(C)CC1CC(OC(=O)COc2ccccc2[N+](=O)[O-])=C(c2c(C)cc(C)cc2C)C1=O (stereo not shown) [1-071]	0 (Herbicidal ratio of 5% or lower (almost no effect))	5 (Herbicidal ratio of 90% or more (almost completely withered))	0 (Herbicidal ratio of 5% or lower (almost no effect))	5 (Herbicidal ratio of 90% or more (almost completely withered))	4 (Herbicidal ratio of 70% or higher and lower than 90%)	3 (Herbicidal ratio of 40% or higher and lower than 70%)	4 (Herbicidal ratio of 70% or higher and lower than 90%)	5 (Herbicidal ratio of 90% or more (almost completely withered))	–	4 (Herbicidal ratio of 70% or higher and lower than 90%)	4 (Herbicidal ratio of 70% or higher and lower than 90%)	4 (Herbicidal ratio of 70% or higher and lower than 90%)	3 (Herbicidal ratio of 40% or higher and lower than 70%)	5 (Herbicidal ratio of 90% or more (almost completely withered))	5 (Herbicidal ratio of 90% or more (almost completely withered))	5 (Herbicidal ratio of 90% or more (almost completely withered))	5 (Herbicidal ratio of 90% or more (almost completely withered))	1 (Herbicidal ratio of 5% or higher and lower than 20%)	–
CON=C(C)CC1CC(OC(=O)COc2ccc(Cl)cc2Cl)=C(c2c(C)cc(C)cc2C)C1=O (stereo not shown) [1-075]	0 (Herbicidal ratio of 5% or lower (almost no effect))	5 (Herbicidal ratio of 90% or more (almost completely withered))	–	5 (Herbicidal ratio of 90% or more (almost completely withered))	4 (Herbicidal ratio of 70% or higher and lower than 90%)	4 (Herbicidal ratio of 70% or higher and lower than 90%)	–	–	–	–	5 (Herbicidal ratio of 90% or more (almost completely withered))	–	–	–	5 (Herbicidal ratio of 90% or more (almost completely withered))	5 (Herbicidal ratio of 90% or more (almost completely withered))	–	–	N: Amaranthus retroflexus, herbicidal effect (criteria 0-5) [3]: 4 (Herbicidal ratio of 70% or higher and lower than 90%); d: soybean, effect on crop (criteria 0-5) [7]: 1 (Herbicidal ratio of 5% or higher and lower than 20%); c: corn, effect on crop (criteria 0-5) [8]: 4 (Herbicidal ratio of 70% or higher and lower than 90%); K: Lolium multiflorum Lam., herbicidal effect (criteria 0-5) [13]: 5 (Herbicidal ratio of 90% or more (almost completely withered)); F: Digitaria ciliaris, herbicidal effect (criteria 0-5) [14]: 5 (Herbicidal ratio of 90% or more (almost completely withered)); R: Veronica persica, herbicidal effect (criteria 0-5) [18]: 0 (Herbicidal ratio of 5% or lower (almost no effect)); H: Echinochloa crus-galli var. crus-galli, herbicidal effect (criteria 0-5) [17]: 5 (Herbicidal ratio of 90% or more (almost completely withered))
